Legend:
southern crabgrass = experiment: Test Example 4: herbicidal effect by soil treatment (Table 19, symbol F); format: in vivo, southern crabgrass (Digitaria ciliaris)
Summary of the method: (§1)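 Pre-emergence style soil spray: seeds under ~1.5 cm sterilized diluvial soil received a uniform coat of emulsion diluted to the predetermined herbicide amount. Greenhouse 25–30° C; readout at week three on previously defined criteria.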

false cleavers [1] = experiment: Test Example 4: herbicidal effect by soil treatment (Table 19, symbol Q); format: in vivo, false cleavers (Galium spurium)
Summary of the method: as §1

wild oat [2] = experiment: Test Example 5: herbicidal effect by foliage application, plastic box (Table 20, symbol I); format: in vivo, wild oat (Avena fatua); conditions: foliage application, three weeks after application
Summary of the method: (§2)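 Plants were sown into sterilized diluvial soil under about 1.5 cm cover and kept in a greenhouse at 25° C. to 30° C. Fourteen days on, foliage received an even spray of the diluted emulsion. Herbicidal or crop effect was judged three weeks afterwards.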

blackgrass [3] = experiment: Test Example 4: herbicidal effect by soil treatment (Table 19, symbol J); format: in vivo, blackgrass (Alopecurus myosuroides)
Summary of the method: as §1

lambsquarters = experiment: Test Example 4: herbicidal effect by soil treatment (Table 19, symbol O); format: in vivo, lambsquarters (Chenopodium album)
Summary of the method: as §1

barnyard grass [4] = experiment: Test Example 5: herbicidal effect by foliage application, plastic box (Table 20, symbol H); format: in vivo, barnyard grass (Echinochloa crus-galli); conditions: foliage application, three weeks after application
Summary of the method: as §2

oval-leafed pondweed = experiment: Test Example 1: herbicidal activity, application before weed generation under submerged conditions (Table 16, symbol C); format: in vivo, oval-leafed pondweed (Monochoria vaginalis)
Summary of the method: (§3)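 Emulsion formulation, water-diluted to set dose, was put onto the flooded surface (4 cm depth, alluvial soil) the same day weeds were sown and 2.5-leaf rice transplanted. After 3 weeks at 25-30 °C under glass, each species was rated 0 (≤5% kill) to 5 (≥90% kill).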

velvetleaf [5] = experiment: Test Example 4: herbicidal effect by soil treatment (Table 19, symbol M); format: in vivo, velvetleaf (Abutilon theophrasti)
Summary of the method: as §1

false cleavers [6] = experiment: Test Example 5: herbicidal effect by foliage application, plastic box (Table 20, symbol Q); format: in vivo, false cleavers (Galium spurium); conditions: foliage application, three weeks after application
Summary of the method: as §2

redroot pigweed [7] = experiment: Test Example 5: herbicidal effect by foliage application, plastic box (Table 20, symbol N); format: in vivo, redroot pigweed (Amaranthus retroflexus); conditions: foliage application, three weeks after application
Summary of the method: as §2

Japanese bulrush = experiment: Test Example 1: herbicidal activity, application before weed generation under submerged conditions (Table 16, symbol B); format: in vivo, Japanese bulrush (Schoenoplectus juncoides)
Summary of the method: as §3

wild oat [8] = experiment: Test Example 4: herbicidal effect by soil treatment (Table 19, symbol I); format: in vivo, wild oat (Avena fatua)
Summary of the method: as §1

chickweed = experiment: Test Example 5: herbicidal effect by foliage application, plastic box (Table 20, symbol P); format: in vivo, common chickweed (Stellaria media); conditions: foliage application, three weeks after application
Summary of the method: as §2

velvetleaf [9] = experiment: Test Example 5: herbicidal effect by foliage application, plastic box (Table 20, symbol M); format: in vivo, velvetleaf (Abutilon theophrasti); conditions: foliage application, three weeks after application
Summary of the method: as §2

barnyard grass [10] = experiment: Test Example 4: herbicidal effect by soil treatment (Table 19, symbol H); format: in vivo, barnyard grass (Echinochloa crus-galli)
Summary of the method: as §1

redroot pigweed [11] = experiment: Test Example 4: herbicidal effect by soil treatment (Table 19, symbol N); format: in vivo, redroot pigweed (Amaranthus retroflexus)
Summary of the method: as §1

blackgrass [12] = experiment: Test Example 5: herbicidal effect by foliage application, plastic box (Table 20, symbol J); format: in vivo, blackgrass (Alopecurus myosuroides); conditions: foliage application, three weeks after application
Summary of the method: as §2

Chinese sprangletop = experiment: Test Example 3: herbicidal effect by foliage application, Wagner pot (Table 18, symbol D); format: in vivo, chinese sprangletop (Leptochloa chinensis)
Summary of the method: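 Plants were sown in alluvial soil held under 0.1–0.5 cm standing water and grown 14 days in a greenhouse at 25–30 °C. An emulsifiable formulation, water-diluted to the set dose, was then sprayed onto the foliage, and effects were scored three weeks later using previously defined criteria.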

[13] = amount of applied herbicide 320 g/ha
[14] = amount of applied herbicide 224 g/ha
[15] = amount of applied herbicide 304 g/ha

Structure (SMILES): CCCC(=O)Oc1c(C)nn(C)c(=O)c1-c1c(-c2ccccc2OCC)sc2cc(F)ccc12 [3-007]
- herbicidal effect, F: southern crabgrass (southern crabgrass; [13]): 4 (Herbicidal rate of 70% or more and less than 90%)
- herbicidal effect, Q: false cleavers (false cleavers [1]; [13]): 5 (Herbicidal rate of 90% or more (almost completely withered))
- I: wild oat, herbicidal effect grade (wild oat [2]; 320 g/ha): 5 (Herbicidal rate of 90% or more (almost completely withered))
- herbicidal effect, J: blackgrass (blackgrass [3]; [13]): 3 (Herbicidal rate of 40% or more and less than 70%)
- herbicidal effect, O: lambsquarters (lambsquarters; [13]): 0 (Herbicidal rate of 5% or less (almost no effect))
- H: barnyard grass, herbicidal effect grade (barnyard grass [4]; 320 g/ha): 5 (Herbicidal rate of 90% or more (almost completely withered))
- Herbicidal effect, C: oval-leafed pondweed (oval-leafed pondweed; [13]): 4 (Herbicidal rate of 70% or more and less than 90%)
- herbicidal effect, M: velvetleaf (velvetleaf [5]; [13]): 4 (Herbicidal rate of 70% or more and less than 90%)
- Q: false cleavers, herbicidal effect grade (false cleavers [6]; 320 g/ha): 5 (Herbicidal rate of 90% or more (almost completely withered))
- N: redroot pigweed, herbicidal effect grade (redroot pigweed [7]; 320 g/ha): 5 (Herbicidal rate of 90% or more (almost completely withered))
- Herbicidal effect, B: Japanese bulrush (Japanese bulrush; [13]): 5 (Herbicidal rate of 90% or more (almost completely withered))
- herbicidal effect, I: wild oat (wild oat [8]; [13]): 2 (Herbicidal rate of 20% or more and less than 40%)
- P: chickweed, herbicidal effect grade (chickweed; 320 g/ha): 5 (Herbicidal rate of 90% or more (almost completely withered))
- M: velvetleaf, herbicidal effect grade (velvetleaf [9]; 320 g/ha): 5 (Herbicidal rate of 90% or more (almost completely withered))
- herbicidal effect, H: barnyard grass (barnyard grass [10]; [13]): 0 (Herbicidal rate of 5% or less (almost no effect))
- herbicidal effect, N: redroot pigweed (redroot pigweed [11]; [13]): 4 (Herbicidal rate of 70% or more and less than 90%)
- J: blackgrass, herbicidal effect grade (blackgrass [12]; 320 g/ha): 5 (Herbicidal rate of 90% or more (almost completely withered))
- herbicidal effect on D: Chinese sprangletop (Chinese sprangletop; [13]): 5 (Herbicidal rate of 90% or more (almost completely withered))

Structure (SMILES): CCCC(=O)Oc1c(C)nn(C)c(=O)c1-c1c(-c2ccccc2OC)sc2cc(C)ccc12 [3-050]
- F: southern crabgrass, herbicidal effect grade (southern crabgrass; [14]): 0 (Herbicidal rate of 5% or less (almost no effect))
- Q: false cleavers, herbicidal effect grade (false cleavers [1]; [14]): 0 (Herbicidal rate of 5% or less (almost no effect))
- I: wild oat, herbicidal effect grade (wild oat [2]; 224 g/ha): 4 (Herbicidal rate of 70% or more and less than 90%)
- J: blackgrass, herbicidal effect grade (blackgrass [3]; [14]): 0 (Herbicidal rate of 5% or less (almost no effect))
- O: lambsquarters, herbicidal effect grade (lambsquarters; [14]): 0 (Herbicidal rate of 5% or less (almost no effect))
- H: barnyard grass, herbicidal effect grade (barnyard grass [4]; 224 g/ha): 4 (Herbicidal rate of 70% or more and less than 90%)
- Herbicidal effect, C: oval-leafed pondweed (oval-leafed pondweed; [14]): 1 (Herbicidal rate of 5% or more and less than 20%)
- M: velvetleaf, herbicidal effect grade (velvetleaf [5]; [14]): 0 (Herbicidal rate of 5% or less (almost no effect))
- Q: false cleavers, herbicidal effect grade (false cleavers [6]; 224 g/ha): 4 (Herbicidal rate of 70% or more and less than 90%)
- N: redroot pigweed, herbicidal effect grade (redroot pigweed [7]; 224 g/ha): 4 (Herbicidal rate of 70% or more and less than 90%)
- Herbicidal effect, B: Japanese bulrush (Japanese bulrush; [14]): 0 (Herbicidal rate of 5% or less (almost no effect))
- I: wild oat, herbicidal effect grade (wild oat [8]; [14]): 0 (Herbicidal rate of 5% or less (almost no effect))
- P: chickweed, herbicidal effect grade (chickweed; 224 g/ha): 5 (Herbicidal rate of 90% or more (almost completely withered))
- M: velvetleaf, herbicidal effect grade (velvetleaf [9]; 224 g/ha): 4 (Herbicidal rate of 70% or more and less than 90%)
- H: barnyard grass, herbicidal effect grade (barnyard grass [10]; [14]): 0 (Herbicidal rate of 5% or less (almost no effect))
- N: redroot pigweed, herbicidal effect grade (redroot pigweed [11]; [14]): 0 (Herbicidal rate of 5% or less (almost no effect))
- J: blackgrass, herbicidal effect grade (blackgrass [12]; 224 g/ha): 4 (Herbicidal rate of 70% or more and less than 90%)
- herbicidal effect on Chinese sprangletop (D) (Chinese sprangletop; 224 g/ha): 3 (Herbicidal rate of 40% or more and less than 70%)

Structure (SMILES): CCCC(=O)Oc1c(C)nn(C)c(=O)c1-c1c(-c2ccccc2OCC)sc2cc(C)ccc12 [3-054]
- F: southern crabgrass, herbicidal effect grade (southern crabgrass; [15]): 4 (Herbicidal rate of 70% or more and less than 90%)
- Q: false cleavers, herbicidal effect grade (false cleavers [1]; [15]): 2 (Herbicidal rate of 20% or more and less than 40%)
- I: wild oat, herbicidal effect grade (wild oat [2]; 304 g/ha): 5 (Herbicidal rate of 90% or more (almost completely withered))
- J: blackgrass, herbicidal effect grade (blackgrass [3]; [15]): 3 (Herbicidal rate of 40% or more and less than 70%)
- O: lambsquarters, herbicidal effect grade (lambsquarters; [15]): 0 (Herbicidal rate of 5% or less (almost no effect))
- H: barnyard grass, herbicidal effect grade (barnyard grass [4]; 304 g/ha): 4 (Herbicidal rate of 70% or more and less than 90%)
- Herbicidal effect, C: oval-leafed pondweed (oval-leafed pondweed; [15]): 4 (Herbicidal rate of 70% or more and less than 90%)
- M: velvetleaf, herbicidal effect grade (velvetleaf [5]; [15]): 0 (Herbicidal rate of 5% or less (almost no effect))
- Q: false cleavers, herbicidal effect grade (false cleavers [6]; 304 g/ha): 5 (Herbicidal rate of 90% or more (almost completely withered))
- N: redroot pigweed, herbicidal effect grade (redroot pigweed [7]; 304 g/ha): 5 (Herbicidal rate of 90% or more (almost completely withered))
- Herbicidal effect, B: Japanese bulrush (Japanese bulrush; [15]): 5 (Herbicidal rate of 90% or more (almost completely withered))
- I: wild oat, herbicidal effect grade (wild oat [8]; [15]): 1 (Herbicidal rate of 5% or more and less than 20%)
- P: chickweed, herbicidal effect grade (chickweed; 304 g/ha): 5 (Herbicidal rate of 90% or more (almost completely withered))
- M: velvetleaf, herbicidal effect grade (velvetleaf [9]; 304 g/ha): 4 (Herbicidal rate of 70% or more and less than 90%)
- H: barnyard grass, herbicidal effect grade (barnyard grass [10]; [15]): 0 (Herbicidal rate of 5% or less (almost no effect))
- N: redroot pigweed, herbicidal effect grade (redroot pigweed [11]; [15]): 1 (Herbicidal rate of 5% or more and less than 20%)
- J: blackgrass, herbicidal effect grade (blackgrass [12]; 304 g/ha): 4 (Herbicidal rate of 70% or more and less than 90%)
- herbicidal effect on Chinese sprangletop (D) (Chinese sprangletop; 304 g/ha): 3 (Herbicidal rate of 40% or more and less than 70%)

Structure (SMILES): COc1cc(F)ccc1-c1sc2cc(C)ccc2c1-c1c(O)c(C)nn(C)c1=O [3-055]
- F: southern crabgrass, herbicidal effect grade (southern crabgrass; [13]): 3 (Herbicidal rate of 40% or more and less than 70%)
- Q: false cleavers, herbicidal effect grade (false cleavers [1]; [13]): 3 (Herbicidal rate of 40% or more and less than 70%)
- I: wild oat, herbicidal effect grade (wild oat [2]; 320 g/ha): 5 (Herbicidal rate of 90% or more (almost completely withered))
- J: blackgrass, herbicidal effect grade (blackgrass [3]; [13]): 2 (Herbicidal rate of 20% or more and less than 40%)
- O: lambsquarters, herbicidal effect grade (lambsquarters; [13]): 0 (Herbicidal rate of 5% or less (almost no effect))
- H: barnyard grass, herbicidal effect grade (barnyard grass [4]; 320 g/ha): 4 (Herbicidal rate of 70% or more and less than 90%)
- Herbicidal effect, C: oval-leafed pondweed (oval-leafed pondweed; [13]): 3 (Herbicidal rate of 40% or more and less than 70%)
- M: velvetleaf, herbicidal effect grade (velvetleaf [5]; [13]): 0 (Herbicidal rate of 5% or less (almost no effect))
- Q: false cleavers, herbicidal effect grade (false cleavers [6]; 320 g/ha): 4 (Herbicidal rate of 70% or more and less than 90%)
- N: redroot pigweed, herbicidal effect grade (redroot pigweed [7]; 320 g/ha): 5 (Herbicidal rate of 90% or more (almost completely withered))
- Herbicidal effect, B: Japanese bulrush (Japanese bulrush; [13]): 4 (Herbicidal rate of 70% or more and less than 90%)
- I: wild oat, herbicidal effect grade (wild oat [8]; [13]): 3 (Herbicidal rate of 40% or more and less than 70%)
- P: chickweed, herbicidal effect grade (chickweed; 320 g/ha): 5 (Herbicidal rate of 90% or more (almost completely withered))
- M: velvetleaf, herbicidal effect grade (velvetleaf [9]; 320 g/ha): 5 (Herbicidal rate of 90% or more (almost completely withered))
- H: barnyard grass, herbicidal effect grade (barnyard grass [10]; [13]): 0 (Herbicidal rate of 5% or less (almost no effect))
- N: redroot pigweed, herbicidal effect grade (redroot pigweed [11]; [13]): 0 (Herbicidal rate of 5% or less (almost no effect))
- J: blackgrass, herbicidal effect grade (blackgrass [12]; 320 g/ha): 5 (Herbicidal rate of 90% or more (almost completely withered))
- herbicidal effect on Chinese sprangletop (D) (Chinese sprangletop; 320 g/ha): 4 (Herbicidal rate of 70% or more and less than 90%)

Source: US20230085307A1, “PYRIDAZINONE COMPOUND AND HERBICIDE” (NISSAN CHEMICAL CORPORATION, priority 2019, published 2023)
